US11592438B2, “Device and method for force phenotyping of cells for high-throughput screening and analysis” (THE REGENTS OF THE UNIVERSITY OF CALIFORNIA, priority 2014, dated 2023)
No end group written: not given here.

Assays:
[1] = tested on: HeLa cells; assay: Dose-response force phenotyping of HeLa cells in well-based embodiment; assay type: cell-based, human; settings: increased concentration, FIG. 12A
Excerpt: The image processing software 36 identifies all instances of a given molecular pattern 16 in an image stack and determines how many cells (e.g., 0, 1, or 2+) are adhered to each pattern 16 based on images of those cells 11 with stained nuclei. A MATLAB script opens the image files and pairs the stained nuclei images (e.g., DAPI images) with the fluorescent images of the patterns 16 (e.g., FITC images). The image processing software 36 calculates characteristic pixel length(s) of a given pattern 16 for the cases of no cells adhered and one (1) cell adhered. The ‘FITC’ images may be linearly scaled up with, for example, the MATLAB function ‘imresize’ to improve resolution of these measurements. For those patterns with zero cells adhered thereto, the center of each pattern 16 may be determined using binary center-of-mass calculations. […] Patterns 16 with two or more nuclei are not analyzed. For each processed pattern 16 (those that are crosses or “X” shaped), the diagonal distance in pixels is measured between the calculated center and the bright edge of the pattern 16 in each direction as illustrated in FIG. 10. […] These lengths are normalized to the median of those measured in patterns 16 with no cells (nominally 0 pixel deformations which is used as a control) and a relative distribution plot for patterns with one (1) cell is generated (see FIG. 8). […]

[2] = tested on: primary human airway smooth muscle cells; assay: Pattern contraction / force generation screening of airway smooth muscle cells in 96 well plate; assay type: cell-based; settings: for contraction of ASM cells (pattern deflection): ASM cells exposed to the compound
Excerpt: The image processing software 36 identifies all instances of a given molecular pattern 16 in an image stack and determines how many cells (e.g., 0, 1, or 2+) are adhered to each pattern 16 based on images of those cells 11 with stained nuclei. A MATLAB script opens the image files and pairs the stained nuclei images (e.g., DAPI images) with the fluorescent images of the patterns 16 (e.g., FITC images). The image processing software 36 calculates characteristic pixel length(s) of a given pattern 16 for the cases of no cells adhered and one (1) cell adhered. The ‘FITC’ images may be linearly scaled up with, for example, the MATLAB function ‘imresize’ to improve resolution of these measurements. For those patterns with zero cells adhered thereto, the center of each pattern 16 may be determined using binary center-of-mass calculations. For those patterns 16 with one (1) cell adhered thereto, a series of binary dilation and erosion operations, followed by a binary center-of-mass calculation on patterns is performed. The erosion/dilation procedure is used to remove the potential asymmetry in the pattern 16 arising from cell-induced deformations that would otherwise impact the location of the center of mass. Patterns 16 with two or more nuclei are not analyzed. For each processed pattern 16 (those that are crosses or “X” shaped), the diagonal distance in pixels is measured between the calculated center and the bright edge of the pattern 16 in each direction as illustrated in FIG. 10. […] These measurements are stored, converted to microns based on the magnification used (typically 10×). These lengths are normalized to the median of those measured in patterns 16 with no cells (nominally 0 pixel deformations which is used as a control) and a relative distribution plot for patterns with one (1) cell is generated (see FIG. 8). Cropped images of each pattern 16 screened by the image processing software 36 in a given location and the images of the corresponding cell nuclei on those patterns 16 are saved and may be reviewed if an execution error is suspected. FIG. 8 illustrates examples of cropped DAPI and FITC images.
FIGS. 6A and 6B illustrate another embodiment of the invention. In this embodiment, a substrate 40 such as a plate having apertures 42 formed therein (non-tapered) is adhered to the layer 12 such that individual wells 44 are formed over the surface of the layer 12 with each well 44 containing a plurality of fluorescent patterns 16. […]
These patterns 16 are then used as the controls. For example, similarly shaped patterns with no cells 11 thereon may have their respective dimensions measured and a baseline established that is representative of no deflection in the pattern 16. […]

Molecule: Cc1ccc2c(c1)C(=O)C1(O)CCN(c3ccccc3)C1=N2 (centres unmarked) [blebbistatin]
- deflection as function of concentration [1]: less deflection

Molecule: O=S(=O)(c1cccc2c(I)cccc12)N1CCCNCC1 [ML-7]
- relaxation of smooth muscle contraction (reduction in deflection amount) ([2]; added after contraction by acetylcholine, enodthelin-1 or histamine, FIG. 11A): shown to relax smooth muscle contraction

Molecule: CC(C)(C)NCC(O)c1ccc(O)c(CO)c1 (centres unmarked) [albuterol]
- relaxation of ASM cells ([2]; added after contraction in response to histamine, FIG. 11B): relaxation

Molecule: enodthelin-1 (CSCSSLMDKECVYFCHLDIIW; ends and bridges not checked; cysteine pairing not given here; UniProt P05305 53-73, looked up) [contractile stimulus for ASM cells]
- contraction of ASM cells (pattern deflection) ([2]; FIG. 11A): contraction

Molecule: NCCc1c[nH]cn1 [histamine]
- contraction of ASM cells (pattern deflection) ([2]; FIG. 11A): contraction
